Test results: patent US20090191193A1, “Aryl Vinyl Sulfides, Sulfones, Sulfoxides and Sulfonamides, Derivatives Thereof and Therapeutic Uses Thereof” (TEMPLE UNIVERSITY-OF THE COMMONWEALTH SYSTEM OF HIGHER …, priority 2006, published 2009)

Legend:
DU145 (prostate cancer) = assay: Effect on tumor cell lines, viable cell count by trypan blue exclusion (Latham et al.): DU145; assay type: cell-based; settings: Homo sapiens, DU-145, 96 h, DU145 prostate cancer cells, viable cell count 96 hours after treatment
[1] = tested on: K562 (chronic myelogenous leukaemia); assay: Effect on tumor cell lines, viable cell count by trypan blue exclusion (Latham et al.): K562; assay type: cell-based; settings: Homo sapiens, K562, 96 h, K562 chronic myelogenous leukaemia cells, viable cell count 96 hours after treatment

Row | SMILES | IC50 (DU145 (prostate cancer)) | IC50 [1] | melting point
1 | COc1ccc(/C=C(\C#N)S(=O)(=O)Nc2ccc(Br)cc2)c(OC)c1OC [Example 218] | > 100 µM | 50 to 100 µM | 146 to 148 °C
2 | COc1ccc(NS(=O)(=O)/C(C#N)=C/c2ccc(C)s2)cc1 [Example 283] | > 100 µM | > 100 µM | 118 to 121 °C
3 | N#C/C(=C\c1ccc(O)c([N+](=O)[O-])c1)S(=O)(=O)Cc1ccc(Cl)cc1 [Example 59] | 50 to 100 µM | 50 to 100 µM | 195 to 205 °C
4 | N#C/C(=C\c1c[nH]c2ccccc12)S(=O)(=O)Cc1ccc(Cl)cc1 [Example 68] | 25 to 50 µM | 10 to 25 µM | 200 to 205 °C
5 | COc1ccc(/C=C(\C#N)S(=O)(=O)Cc2ccc(Cl)cc2Cl)c(F)c1 [Example 65] | 50 to 100 µM | 50 to 100 µM | 140 to 155 °C
6 | COc1cc(OC)c(/C=C(\C#N)S(=O)(=O)Nc2ccccc2Oc2ccccc2)c(OC)c1 [Example 208] | 50 to 100 µM | 25 to 50 µM | 154 to 156 °C
7 | Cc1ccc(NS(=O)(=O)/C(C#N)=C/c2cc(Cl)cc(Cl)c2Cl)c(C)c1 [Example 263] | < 1 µM | < 1 µM | 171 to 173 °C
8 | N#C/C(=C\c1ccccc1OCc1ccccc1)S(=O)(=O)Cc1ccc(Cl)cc1 [Example 70] | > 100 µM | > 100 µM | 129 to 137 °C
9 | Cc1ccc(/C=C(\C#N)S(=O)(=O)Cc2ccc(Br)cc2)s1 [Example 118] | > 100 µM | > 100 µM | 142 to 148 °C
10 | COc1ccc(/C=C(\C#N)S(=O)(=O)Cc2ccccc2)c(F)c1 [Example 129] | > 100 µM | 50 to 100 µM | 161 to 166 °C
11 | COc1cc(OC)c(/C=C(\C#N)S(=O)(=O)Nc2ccc(C)cc2C)c(OC)c1 [Example 254] | 50 to 100 µM | 50 to 100 µM | 132 to 134 °C
12 | CCOc1ccc(/C=C(\C#N)S(=O)(=O)Cc2ccc(Cl)cc2)cc1OC [Example 55] | 10 to 25 µM | 10 to 25 µM | 143 to 148 °C
13 | N#C/C(=C\c1ccccc1Cl)S(=O)(=O)Nc1ccc(F)cc1 [Example 235] | 25 to 50 µM | 10 to 25 µM | 182 to 184 °C
14 | CCOc1ccc(/C=C(\C#N)S(=O)(=O)Nc2ccc(C)cc2C)cc1OC [Example 273] | > 100 µM | > 100 µM | 146 to 150 °C
15 | COc1ccccc1/C=C(\C#N)S(=O)(=O)Nc1ccc(C)cc1C [Example 266, (E)-2-[(2,4-dimethylphenyl)sulfamoyl]-3-(2-methoxyphenyl)acrylonitrile] | > 100 µM | 50 to 100 µM | 136 to 139 °C
16 | N#C/C(=C\c1ccccc1O)S(=O)(=O)Nc1ccc(Br)cc1 [Example 228] | 25 to 50 µM | 25 to 50 µM | 169 to 170 °C
17 | N#C/C(=C\c1ccc(O)cc1O)S(=O)(=O)Cc1ccc(F)cc1 [Example 83] | 50 to 100 µM | 50 to 100 µM | 225 to 234 °C
18 | COc1ccccc1/C=C(\C#N)S(=O)(=O)Cc1ccccc1 [Example 126] | > 100 µM | > 100 µM | 169 to 172 °C
19 | N#C/C(=C\c1c[nH]c2ccccc12)S(=O)(=O)Nc1ccccc1Oc1ccccc1 [Example 197] | 50 to 100 µM | 50 to 100 µM | 210 to 212 °C
20 | N#C/C(=C\c1ccccc1Oc1ccccc1)S(=O)(=O)Nc1ccccc1Oc1ccccc1 [Example 210] | 25 to 50 µM | 1 to 10 µM | 138 to 140 °C
21 | N#C/C(=C\c1ccc(Cl)cc1)S(=O)(=O)Nc1ccccc1Oc1ccccc1 [Example 207] | 50 to 100 µM | 50 to 100 µM | 136 to 138 °C
22 | Cc1ccc(C)c(/C=C(\C#N)S(=O)(=O)Nc2ccc(F)cc2)c1 [Example 238] | > 100 µM | 50 to 100 µM | 161 to 164 °C
23 | Cc1ccc(C)c(/C=C(\C#N)S(=O)(=O)Cc2ccc(F)cc2)c1 [Example 90] | > 100 µM | 50 to 100 µM | 122 to 130 °C
24 | Cc1ccc(/C=C(\C#N)S(=O)(=O)Cc2ccc(Cl)cc2Cl)s1 [Example 63] | > 100 µM | > 100 µM | 118 to 124 °C
25 | Cc1ccc(C)c(/C=C(\C#N)S(=O)(=O)Cc2ccc(Br)cc2)c1 [Example 119] | > 100 µM | > 100 µM | 124 to 128 °C
26 | Cc1ccc(C)c(/C=C(\C#N)S(=O)(=O)Cc2ccccc2)c1 [Example 136] | 25 to 50 µM | 1 to 10 µM | 126 to 129 °C
27 | COc1ccc(/C=C(\C#N)S(=O)(=O)Cc2ccc(OC)cc2)cc1 [Example 141] | > 100 µM | > 100 µM | 163 to 167 °C
28 | Cc1ccc(C)c(/C=C(\C#N)S(=O)(=O)Cc2ccc(Cl)cc2Cl)c1 [Example 96] | > 100 µM | 50 to 100 µM | 142 to 149 °C

Row | SMILES | IC50 (DU145 (prostate cancer)) | IC50 [1] | melting point
29 | N#C/C(=C\c1ccc(F)cc1)S(=O)(=O)Cc1ccc(Cl)cc1 [Example 47] | 50 to 100 µM | 50 to 100 µM | 145 to 150 °C
30 | CN(C)c1ccc(/C=C(\C#N)S(=O)(=O)Cc2ccc(F)cc2)cc1 [Example 64] | 50 to 100 µM | 50 to 100 µM | 135 to 145 °C
31 | Cc1ccc(NS(=O)(=O)/C(C#N)=C/c2ccc(O)cc2)c(C)c1 [Example 271] | > 100 µM | > 100 µM | 152 to 154 °C
32 | N#C/C(=C\c1cc(F)cc(F)c1)S(=O)(=O)Cc1ccccc1 [Example 143] | > 100 µM | 25 to 50 µM | 148 to 150 °C
33 | N#C/C(=C\c1c[nH]c2ccc(Br)cc12)S(=O)(=O)Cc1ccc(F)cc1 [Example 78] | 50 to 100 µM | 50 to 100 µM | 260 to 270 °C
34 | N#C/C(=C\c1ccccc1)S(=O)(=O)Cc1ccc(Cl)cc1 [Example 69] | > 100 µM | > 100 µM | 142 to 157 °C
35 | Cc1ccsc1/C=C(\C#N)S(=O)(=O)Nc1ccc(Br)cc1 [Example 224] | 50 to 100 µM | 50 to 100 µM | 176 to 179 °C
36 | Cc1ccc(/C=C(\C#N)S(=O)(=O)Cc2ccc(F)cc2)cc1C [Example 88] | 25 to 50 µM | 10 to 25 µM | 122 to 132 °C
37 | N#C/C(=C\c1c(F)c(F)c(F)c(F)c1F)S(=O)(=O)Cc1ccc(Br)cc1 [Example 19] | 50 µM | 10 µM | 146 to 148 °C
38 | N#C/C(=C\c1c[nH]c2ccc(Cl)cc12)S(=O)(=O)Cc1ccc(Cl)cc1 [Example 73] | 25 to 50 µM | 10 to 25 µM | 172 to 182 °C
39 | CCOc1ccc(/C=C(\C#N)S(=O)(=O)Nc2ccc(F)cc2)cc1OC [Example 251] | > 100 µM | > 100 µM | 150 to 152 °C
40 | CC(=O)Oc1ccc(/C=C(\C#N)S(=O)(=O)Cc2ccc(Cl)cc2)cc1 [Example 57] | 25 to 50 µM | 25 to 50 µM | 192 to 202 °C
41 | COc1cc(/C=C(\C#N)S(=O)(=O)Nc2ccc(F)cc2)cc(OC)c1OC [Example 249] | > 100 µM | > 100 µM | 179 to 182 °C
42 | N#C/C(=C\c1ccc(Cl)cc1Cl)S(=O)(=O)Cc1ccc(Cl)cc1 [Example 51] | 25 to 50 µM | 25 to 50 µM | 121 to 126 °C
43 | Cc1ccc(/C=C(\C#N)S(=O)(=O)Cc2ccc(Cl)cc2)s1 [Example 123] | > 100 µM | > 100 µM | 148 to 152 °C
44 | N#C/C(=C\c1ccc(O)c([N+](=O)[O-])c1)S(=O)(=O)Nc1ccccc1Oc1ccccc1 [Example 209] | > 100 µM | 50 to 100 µM | 83 to 85 °C
45 | N#C/C(=C\c1ccc(Cl)cc1)S(=O)(=O)Nc1ccc(Br)cc1 [Example 212] | 25 to 50 µM | 25 to 50 µM | 169 to 171 °C
46 | N#C/C(=C\c1ccc(Br)cc1)S(=O)(=O)Nc1ccc(F)cc1 [Example 242] | 50 to 100 µM | 50 to 100 µM | 130 to 132 °C
47 | COc1ccc(/C=C(\C#N)S(=O)(=O)Nc2ccc(C)cc2C)c(F)c1 [Example 261] | > 100 µM | 50 to 100 µM | 142 to 144 °C
48 | N#C/C(=C\c1c[nH]c2ccc(Br)cc12)S(=O)(=O)Nc1ccc(F)cc1 [Example 250] | > 100 µM | 50 to 100 µM | 167 to 169 °C
49 | N#C/C(=C\c1ccoc1)S(=O)(=O)Cc1ccc(Cl)cc1Cl [Example 104] | > 100 µM | 50 to 100 µM | 116 to 122 °C
50 | N#C/C(=C\c1ccc(F)c(Cl)c1)S(=O)(=O)Nc1ccc(F)cc1 [Example 245] | 50 to 100 µM | 50 to 100 µM | 118 to 120 °C
51 | N#C/C(=C\c1ccccc1)S(=O)(=O)Cc1ccc(Cl)cc1Cl [Example 112] | 50 to 100 µM | 50 to 100 µM | 219 to 223 °C
52 | COc1cc(OC)c(/C=C(\C#N)S(=O)(=O)Cc2ccc(Cl)cc2)c(OC)c1 [Example 53] | 50 to 100 µM | 50 to 100 µM | 177 to 180 °C
53 | COc1ccc(CS(=O)(=O)/C(C#N)=C/c2c(F)c(F)c(F)c(F)c2F)cc1 [Example 11] | 25 µM | 1 µM | 110 to 112 °C
54 | COc1cc(OC)c(/C=C(\C#N)S(=O)(=O)Cc2ccc(OC)c(F)c2)c(OC)c1 [Example 39] | 1 to 10 µM | 1 to 10 µM | 162 to 164 °C
55 | Cc1cc(/C=C(\C#N)S(=O)(=O)Cc2ccc(Cl)cc2)ccc1F [Example 42] | 50 to 100 µM | 50 to 100 µM | 140 to 145 °C
